In patent US20230085307A1, “PYRIDAZINONE COMPOUND AND HERBICIDE” (NISSAN CHEMICAL CORPORATION, priority 2019, published 2023):

What was measured:
[1] = test system: late watergrass; experiment: Test Example 1: herbicidal activity, application before weed generation under submerged conditions (Table 16, symbol A); format: in vivo, late watergrass (Echinochloa oryzicola); conditions: amount of applied herbicide 320 g/ha
Procedure, shortened: (§1)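 Emulsion formulation, water-diluted to set dose, was put onto the flooded surface (4 cm depth, alluvial soil) the same day weeds were sown and 2.5-leaf rice transplanted. After 3 weeks at 25-30 °C under glass, each species was rated 0 (≤5% kill) to 5 (≥90% kill).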

[2] = test system: green foxtail; experiment: Test Example 4: herbicidal effect by soil treatment (Table 19, symbol G); format: in vivo, green foxtail (Setaria viridis); conditions: amount of applied herbicide 320 g/ha
Procedure, shortened: (§2)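 Herbicidal effect was rated 3 weeks after treatment, using the scoring criteria of an earlier test. The compound, formulated as an emulsion and diluted in water to a set herbicide amount, had been sprayed uniformly on soil over freshly sown seeds. Growth took place in a greenhouse at 25° C. to 30° C.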

[3] = test system: lambsquarters; experiment: Test Example 5: herbicidal effect by foliage application, plastic box (Table 20, symbol O); format: in vivo, lambsquarters (Chenopodium album); conditions: 320 g/ha
Procedure, shortened: (§3)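 Foliar spray test: emulsion formulation diluted in water to a set application rate, sprayed onto 14-day-old plants raised in diluvial soil at 25° C to 30° C under glass. Both herbicidal effect and crop effect rated visually three weeks later.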

[4] = test system: redroot pigweed; experiment: Test Example 5: herbicidal effect by foliage application, plastic box (Table 20, symbol N); format: in vivo, redroot pigweed (Amaranthus retroflexus); conditions: 320 g/ha
Procedure, shortened: as §3

[5] = test system: rice flat sedge; experiment: Test Example 3: herbicidal effect by foliage application, Wagner pot (Table 18, symbol E); format: in vivo, rice flat sedge (Cyperus iria); conditions: 320 g/ha
Procedure, shortened: (§4)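 Plants were sown in alluvial soil held under 0.1–0.5 cm standing water and grown 14 days in a greenhouse at 25–30 °C. An emulsifiable formulation, water-diluted to the set dose, was then sprayed onto the foliage, and effects were scored three weeks later using previously defined criteria.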

[6] = test system: oval-leafed pondweed; experiment: Test Example 1: herbicidal activity, application before weed generation under submerged conditions (Table 16, symbol C); format: in vivo, oval-leafed pondweed (Monochoria vaginalis); conditions: amount of applied herbicide 320 g/ha
Procedure, shortened: as §1

[7] = test system: windgrass; experiment: Test Example 5: herbicidal effect by foliage application, plastic box (Table 20, symbol L); format: in vivo, windgrass (Apera spica-venti); conditions: 320 g/ha
Procedure, shortened: as §3

[8] = test system: persian speedwell; experiment: Test Example 4: herbicidal effect by soil treatment (Table 19, symbol R); format: in vivo, Persian speedwell (Veronica persica); conditions: amount of applied herbicide 320 g/ha
Procedure, shortened: as §2

[9] = test system: blackgrass; experiment: Test Example 4: herbicidal effect by soil treatment (Table 19, symbol J); format: in vivo, blackgrass (Alopecurus myosuroides); conditions: amount of applied herbicide 320 g/ha
Procedure, shortened: as §2

[10] = test system: windgrass; experiment: Test Example 4: herbicidal effect by soil treatment (Table 19, symbol L); format: in vivo, windgrass (Apera spica-venti); conditions: amount of applied herbicide 320 g/ha
Procedure, shortened: as §2

[11] = test system: southern crabgrass; experiment: Test Example 5: herbicidal effect by foliage application, plastic box (Table 20, symbol F); format: in vivo, southern crabgrass (Digitaria ciliaris); conditions: 320 g/ha
Procedure, shortened: as §3

[12] = test system: velvetleaf; experiment: Test Example 4: herbicidal effect by soil treatment (Table 19, symbol M); format: in vivo, velvetleaf (Abutilon theophrasti); conditions: amount of applied herbicide 320 g/ha
Procedure, shortened: as §2

[13] = test system: wild oat; experiment: Test Example 5: herbicidal effect by foliage application, plastic box (Table 20, symbol I); format: in vivo, wild oat (Avena fatua); conditions: 320 g/ha
Procedure, shortened: as §3

[14] = test system: barnyard grass; experiment: Test Example 5: herbicidal effect by foliage application, plastic box (Table 20, symbol H); format: in vivo, barnyard grass (Echinochloa crus-galli); conditions: 320 g/ha
Procedure, shortened: as §3

[15] = test system: redroot pigweed; experiment: Test Example 4: herbicidal effect by soil treatment (Table 19, symbol N); format: in vivo, redroot pigweed (Amaranthus retroflexus); conditions: amount of applied herbicide 320 g/ha
Procedure, shortened: as §2

[16] = test system: Japanese bulrush; experiment: Test Example 1: herbicidal activity, application before weed generation under submerged conditions (Table 16, symbol B); format: in vivo, Japanese bulrush (Schoenoplectus juncoides); conditions: amount of applied herbicide 320 g/ha
Procedure, shortened: as §1

[17] = test system: velvetleaf; experiment: Test Example 5: herbicidal effect by foliage application, plastic box (Table 20, symbol M); format: in vivo, velvetleaf (Abutilon theophrasti); conditions: 320 g/ha
Procedure, shortened: as §3

[18] = test system: barnyard grass; experiment: Test Example 3: herbicidal effect by foliage application, Wagner pot (Table 18, symbol H); format: in vivo, barnyard grass (Echinochloa crus-galli); conditions: 320 g/ha
Procedure, shortened: as §4

[19] = test system: Italian ryegrass; experiment: Test Example 4: herbicidal effect by soil treatment (Table 19, symbol K); format: in vivo, Italian ryegrass (Lolium multiflorum); conditions: amount of applied herbicide 320 g/ha
Procedure, shortened: as §2

[20] = test system: chickweed; experiment: Test Example 4: herbicidal effect by soil treatment (Table 19, symbol P); format: in vivo, common chickweed (Stellaria media); conditions: amount of applied herbicide 320 g/ha
Procedure, shortened: as §2

[21] = test system: wild oat; experiment: Test Example 4: herbicidal effect by soil treatment (Table 19, symbol I); format: in vivo, wild oat (Avena fatua); conditions: amount of applied herbicide 320 g/ha
Procedure, shortened: as §2

[22] = test system: blackgrass; experiment: Test Example 5: herbicidal effect by foliage application, plastic box (Table 20, symbol J); format: in vivo, blackgrass (Alopecurus myosuroides); conditions: 320 g/ha
Procedure, shortened: as §3

[23] = test system: chickweed; experiment: Test Example 5: herbicidal effect by foliage application, plastic box (Table 20, symbol P); format: in vivo, common chickweed (Stellaria media); conditions: 320 g/ha
Procedure, shortened: as §3

[24] = test system: southern crabgrass; experiment: Test Example 4: herbicidal effect by soil treatment (Table 19, symbol F); format: in vivo, southern crabgrass (Digitaria ciliaris); conditions: amount of applied herbicide 320 g/ha
Procedure, shortened: as §2

[25] = test system: persian speedwell; experiment: Test Example 5: herbicidal effect by foliage application, plastic box (Table 20, symbol R); format: in vivo, Persian speedwell (Veronica persica); conditions: 320 g/ha
Procedure, shortened: as §3

[26] = test system: green foxtail; experiment: Test Example 5: herbicidal effect by foliage application, plastic box (Table 20, symbol G); format: in vivo, green foxtail (Setaria viridis); conditions: 320 g/ha
Procedure, shortened: as §3

[27] = test system: Italian ryegrass; experiment: Test Example 5: herbicidal effect by foliage application, plastic box (Table 20, symbol K); format: in vivo, Italian ryegrass (Lolium multiflorum); conditions: 320 g/ha
Procedure, shortened: as §3

[28] = test system: Chinese sprangletop; experiment: Test Example 3: herbicidal effect by foliage application, Wagner pot (Table 18, symbol D); format: in vivo, chinese sprangletop (Leptochloa chinensis); conditions: 320 g/ha
Procedure, shortened: as §4

[29] = test system: lambsquarters; experiment: Test Example 4: herbicidal effect by soil treatment (Table 19, symbol O); format: in vivo, lambsquarters (Chenopodium album); conditions: amount of applied herbicide 320 g/ha
Procedure, shortened: as §2

[30] = test system: barnyard grass; experiment: Test Example 4: herbicidal effect by soil treatment (Table 19, symbol H); format: in vivo, barnyard grass (Echinochloa crus-galli); conditions: amount of applied herbicide 320 g/ha
Procedure, shortened: as §2

[31] = foliage application, three weeks after application
[32] = foliage application after 14-day growth, evaluated three weeks after application

| SMILES | Herbicidal effect, A: late watergrass [1] | Herbicidal effect by soil treatment, G: green foxtail [2] | herbicidal effect on rice flat sedge (E) [5] | Herbicidal effect, C: oval-leafed pondweed [6] | Herbicidal effect by soil treatment, R: persian speedwell [8] | Herbicidal effect by soil treatment, J: blackgrass [9] | Herbicidal effect by soil treatment, L: windgrass [10] | Herbicidal effect by soil treatment, M: velvetleaf [12] | Herbicidal effect by soil treatment, N: redroot pigweed [15] | Herbicidal effect, B: Japanese bulrush [16] | herbicidal effect on barnyard grass (H) [18] | Herbicidal effect by soil treatment, K: Italian ryegrass [19] | Herbicidal effect by soil treatment, P: chickweed [20] | Herbicidal effect by soil treatment, I: wild oat [21] | Herbicidal effect by soil treatment, F: southern crabgrass [24] | herbicidal effect on Chinese sprangletop (D) [28] | Herbicidal effect by soil treatment, O: lambsquarters [29] | Herbicidal effect by soil treatment, H: barnyard grass [30] | other results |
| --- | --- | --- | --- | --- | --- | --- | --- | --- | --- | --- | --- | --- | --- | --- | --- | --- | --- | --- | --- |
| COCc1ccc2c(-c3c(O)c(C)nn(C)c3=O)c(-c3ccccc3OC)sc2c1 [3-137] | 3 (Herbicidal rate of 40% or more and less than 70%) | 1 (Herbicidal rate of 5% or more and less than 20%) | 5 (Herbicidal rate of 90% or more (almost completely withered)) | 0 (Herbicidal rate of 5% or less (almost no effect)) | 4 (Herbicidal rate of 70% or more and less than 90%) | 0 (Herbicidal rate of 5% or less (almost no effect)) | 0 (Herbicidal rate of 5% or less (almost no effect)) | 0 (Herbicidal rate of 5% or less (almost no effect)) | 0 (Herbicidal rate of 5% or less (almost no effect)) | 0 (Herbicidal rate of 5% or less (almost no effect)) | 3 (Herbicidal rate of 40% or more and less than 70%) | 1 (Herbicidal rate of 5% or more and less than 20%) | 5 (Herbicidal rate of 90% or more (almost completely withered)) | 1 (Herbicidal rate of 5% or more and less than 20%) | 0 (Herbicidal rate of 5% or less (almost no effect)) | 5 (Herbicidal rate of 90% or more (almost completely withered)) | 0 (Herbicidal rate of 5% or less (almost no effect)) | 5 (Herbicidal rate of 90% or more (almost completely withered)) | O: lambsquarters, herbicidal effect grade [3, 31]: 0 (Herbicidal rate of 5% or less (almost no effect)); N: redroot pigweed, herbicidal effect grade [4, 31]: 1 (Herbicidal rate of 5% or more and less than 20%); L: windgrass, herbicidal effect grade [7, 31]: 4 (Herbicidal rate of 70% or more and less than 90%); F: southern crabgrass, herbicidal effect grade [11, 31]: 5 (Herbicidal rate of 90% or more (almost completely withered)); I: wild oat, herbicidal effect grade [13, 31]: 4 (Herbicidal rate of 70% or more and less than 90%); H: barnyard grass, herbicidal effect grade [14, 31]: 3 (Herbicidal rate of 40% or more and less than 70%); M: velvetleaf, herbicidal effect grade [17, 31]: 5 (Herbicidal rate of 90% or more (almost completely withered)); J: blackgrass, herbicidal effect grade [22, 31]: 4 (Herbicidal rate of 70% or more and less than 90%); P: chickweed, herbicidal effect grade [23, 31]: 5 (Herbicidal rate of 90% or more (almost completely withered)); R: persian speedwell, herbicidal effect grade [25, 31]: 5 (Herbicidal rate of 90% or more (almost completely withered)); G: green foxtail, herbicidal effect grade [26, 31]: 5 (Herbicidal rate of 90% or more (almost completely withered)); K: Italian ryegrass, herbicidal effect grade [27, 31]: 4 (Herbicidal rate of 70% or more and less than 90%) |
| COc1ccccc1-c1sc2c(F)cccc2c1-c1c(O)c(C)nn(C)c1=O [4-003] | 3 (Herbicidal rate of 40% or more and less than 70%) | 0 (Herbicidal rate of 5% or less (almost no effect)) | 3 (Herbicidal rate of 40% or more and less than 70%) | 0 (Herbicidal rate of 5% or less (almost no effect)) | 1 (Herbicidal rate of 5% or more and less than 20%) | 0 (Herbicidal rate of 5% or less (almost no effect)) | 0 (Herbicidal rate of 5% or less (almost no effect)) | 0 (Herbicidal rate of 5% or less (almost no effect)) | 4 (Herbicidal rate of 70% or more and less than 90%) | 0 (Herbicidal rate of 5% or less (almost no effect)) | 3 (Herbicidal rate of 40% or more and less than 70%) | 0 (Herbicidal rate of 5% or less (almost no effect)) | 1 (Herbicidal rate of 5% or more and less than 20%) | 0 (Herbicidal rate of 5% or less (almost no effect)) | 0 (Herbicidal rate of 5% or less (almost no effect)) | 3 (Herbicidal rate of 40% or more and less than 70%) | 3 (Herbicidal rate of 40% or more and less than 70%) | 0 (Herbicidal rate of 5% or less (almost no effect)) | herbicidal effect on O: lambsquarters (evaluation grade 0-5) [3, 32]: 3 (Herbicidal rate of 40% or more and less than 70%); herbicidal effect on N: redroot pigweed (evaluation grade 0-5) [4, 32]: 3 (Herbicidal rate of 40% or more and less than 70%); herbicidal effect on L: windgrass (evaluation grade 0-5) [7, 32]: 3 (Herbicidal rate of 40% or more and less than 70%); herbicidal effect on F: southern crabgrass (evaluation grade 0-5) [11, 32]: 1 (Herbicidal rate of 5% or more and less than 20%); herbicidal effect on I: wild oat (evaluation grade 0-5) [13, 32]: 0 (Herbicidal rate of 5% or less (almost no effect)); herbicidal effect on H: barnyard grass (evaluation grade 0-5) [14, 32]: 1 (Herbicidal rate of 5% or more and less than 20%); herbicidal effect on M: velvetleaf (evaluation grade 0-5) [17, 32]: 3 (Herbicidal rate of 40% or more and less than 70%); herbicidal effect on J: blackgrass (evaluation grade 0-5) [22, 32]: 4 (Herbicidal rate of 70% or more and less than 90%); herbicidal effect on P: chickweed (evaluation grade 0-5) [23, 32]: 5 (Herbicidal rate of 90% or more (almost completely withered)); herbicidal effect on R: persian speedwell (evaluation grade 0-5) [25, 32]: 5 (Herbicidal rate of 90% or more (almost completely withered)); herbicidal effect on G: green foxtail (evaluation grade 0-5) [26, 32]: 4 (Herbicidal rate of 70% or more and less than 90%); herbicidal effect on K: Italian ryegrass (evaluation grade 0-5) [27, 32]: 4 (Herbicidal rate of 70% or more and less than 90%) |
